# Assay results published in paper PMC11395333, “The Bifunctional Dimer Caffeine-Indan Attenuates α-Synuclein Misfolding, Neurodegeneration and Behavioral Deficits after Chronic Stimulation of Adenosine A1 Receptors” (International Journal of Molecular Sciences, 2024).
# How the values were obtained:
# [1] = tested on: one- and two-copied α-Syn-Green Fluorescent Protein (GFP) yeast strain; design: method as in PMID 27673434; conditions: cited from earlier work
# [2] = tested on: SN pars compacta and hippocampal CA1 neurons; assay: Fluoro-Jade C staining of brain slices (neurodegeneration); type: in vivo, rat
# Text: All animals were housed and treated humanely following the guidelines from the following governing bodies: National Research Council (US) Committee for the Update of the Guide for the Care and Use of Laboratory Animals (Washington DC, USA, 2011); Canadian Council on Animal Care (CCAC); and the University of Saskatchewan Animal Research Ethics Board (AREB), which approved our Animal Use Protocol (#20070090 and #20170079). The animals were housed in cages of two, with access to food pellets and water ad libitum. The four treatments of the Sprague-Dawley rats consisted of the following: 1. Control (0.1% DMSO in 0.9% saline); 2. CPA; 3. […] Drugs were dissolved at 3 mg/mL in DMSO, and each drug was administered to the animals by daily i.p. injections (3 mg/kg or 5 mg/kg body weight) for 7 consecutive days. […] Then, on days 8 and 9 following the final injections, the animals were subjected to several behavioral tests. Fluro-Jade C (FJC) is a fluorescent marker for neurodegeneration (Millipore-Sigma, Oakville, ON, Canada; Cat# AG325). […] Initially, the microscope slides were immersed in 1% NaOH/80% ethanol for 5 min followed by 2 min immersion in 70% ethanol. The slides were then rinsed for 2 min with ultra-pure water. The microscope slides were further immersed in 0.06% KMnO4 for 10 min, followed by an additional rinse for 2 min with ultra-pure water. The slides were then stained with 0.004% FJC in 0.1% acetic acid for 20 min with gentle shaking on an orbital shaker. Lastly, the slides were rinsed three times in ultra-pure water for 1 min each, making sure to remove all the excess water after each rinse. The slides were then rinsed in xylene and allowed to dry overnight at 4 °C. Then they were treated with Prolong Gold Antifade Reagent from Invitrogen (Thermo Fisher Scientific, Waltham, MA, USA), and respective images were taken using a Zeiss LSM700 confocal microscope (Carl Zeiss Group, Canada) and analyzed with ImageJ (Public Domain). FJC fluorescence was obtained by exciting the dye with a 488 nm laser.
# α-Syn = tested on: α-Syn; design: method as in PMID 27673434; conditions: isothermal titration calorimetry; cited from earlier work
# [3] = CPA 3 mg/kg i.p. daily for 7 days, alone
Structure (SMILES),Rescue from α-Syn-induced cell death ([1]; galactose promoter),Prevention of large α-Syn foci ([1]; one- and two-copied α-Syn-GFP yeast),FJC staining in SNc ([2]; 3 mg/kg and 5 mg/kg + CPA),"FJC, neurodegeneration in CA1 region of the hippocampus ([2]; 3 mg/kg or 5 mg/kg with CPA)",Binding constant with α-Syn (α-Syn) [M⁻¹],Number of binding sites with α-Syn (α-Syn),"FJC fluorescence in SNc [2, 3]","FJC, degenerating neurons in CA1 region of the hippocampus [2, 3]"
Cn1c(=O)c2c(nc(CCCCCCNC3CCc4ccccc43)n2C)n(C)c1=O (centres unmarked) [C8–6–I],successful in rescuing the one- and two-copied α-Syn-Green Fluorescent Protein (GFP) yeast strain from α-Syn-induced cell death,effective in preventing large α-Syn foci,did not significantly increase FJC staining compared to the vehicle control slices,prevented neurodegeneration in hippocampal slices,53000,one binding site,–,–
"OC[C@H]1O[C@@H](n2cnc3c(NC4CCCC4)ncnc32)[C@H](O)[C@@H]1O [CPA, N^6-Cyclopentyladenosine, reference compound]",–,–,–,–,–,–,increased the levels of FJC fluorescence compared to the control,much higher levels of degenerating CA1 pyramidal neurons compared to the control
